Assays:
[1] = Photon correlation spectroscopy (PCS): particle size and zeta potential, bevacizumab nanoparticles; assay type: physicochemical; details: 5 mg/ml bevacizumab solution
Method: Particle size (by intensity) and zeta potential measurements were performed by PCS using Zetasizer Nano ZS (Malvern Instruments, U.K.). The pellets formed after centrifugation at 6,500 rpm for 5 min were thoroughly rinsed and resuspended in deionized water by vortexing. The samples were then sonicated for approximately 5 min. Intensity autocorrelation was measured at a scattering angle (θ) of 173° at 25° C. The Z-average and polydispersity index (PDI) were recorded in triplicate. For zeta potential measurement, the samples were loaded into a universal dip cell (Malvern Instruments, U.K.) before recording the zeta potential in triplicate.
The surfactants seemed to have a concentration-dependent influence on the size and zeta potential of the nanoparticles. […] According to the Manufacturer's Manual, PCS is based on Brownian motion and particles with size above 10 μm tend to quickly sediment. In certain embodiments, under these circumstances, size recorded by the instrument may be due to artifact. […] For surfactant controls, distinct concentrations of the surfactants used in the nanoprecipitation process were dissolved in 0.01 N HCl and titrated with 0.1 N NaOH up to pH 8.4. In the case of nanoparticles, an increase in size was observed as the concentration of the non-ionic surfactant in the precipitation medium increased.

[2] = Far-UV circular dichroism, secondary structure estimated with K2D2; assay type: physicochemical; details: bevacizumab particles reconstituted in acetate buffer; K2D2 estimate
Method: CD measurements were performed with Jasco J-810 Spectropolarimeter (Jasco, Md., USA) operating at 20° C. using 0.5 mg/ml of reconstituted solutions of IgG nanoparticles in acetate buffer. CD spectra were obtained in the far UV region (260-190 nm) using a quartz cell of 0.1 path length in order to probe the stability of the secondary structure of the manufactured nanoparticles. A scanning speed of 50 nm/min with a 0.5-second response time was applied followed by five accumulations for each sample. The experiment was repeated in triplicate for each sample. Surfactants dissolved in the acetate buffer at corresponding concentrations were used as blanks. Signals from blanks were subtracted from sample signals. The CD signals were converted to mean residue weight ellipticity and the percentage of the secondary structure retained was estimated using the K2D2 software.
Far UV CD was used to probe for perturbations in the secondary structure of the antibodies following reconstitution in acetate buffer (pH 6). This was done to test whether the secondary structure of the antibodies was still intact, as major perturbation in the secondary structure of proteins may lead to loss or reduction of biological activity.

MRC-5 cells = experiment: Uptake/internalization of FITC-labeled bevacizumab particles (flow cytometry, fluorescence microscopy); assay type: cell-based; details: 100 μg/mL FITC-labeled particles, 60 min
Method: (§1) A549 and MRC-5 cells (2×10^4 cells/well) were seeded in 8 well coated glass slides and incubated for 48 h. […] Cells were washed with PBS, fixed with 2% paraformaldehyde, and incubated at room temperature for 20 min. PBS washed cells were then blocked with 5% BSA for 30 min at room temperature. Cells were stained with AlexaFluoro-555 labeled wheat germ agglutinin (WGA) and 4′,6-diamidino-2-phenylindole (DAPI) to visualize plasma membrane and nucleus respectively. Cells were mounted and observed under a Leica DMI 6000B fluorescence microscope (Leica Microsystems, Exton, Pa.).
About 1 million cells/well were seeded in a 12 well plate and incubated for 48 h. […] The cells were trypsinized and centrifuged at 300 g for 5 min, and the pellet was washed and resuspended in 0.4% trypan blue (TB) solution in PBS to quench the extracellular FITC fluorescence. TB, while quenching the FITC fluorescence of non-internalized particles, causes them to fluoresce red whereas an internalized particle will fluoresce green. […] The samples were then analyzed by flow cytometry (BDFACS caliber). 10,000 cells were measured in each sample. […]
A549 and MRC-5 cell lines were incubated with FITC-labeled nanoparticles for 15 and 60 minutes. The cells were then washed with D-PBS and extracellular florescence was quenched with trypan blue so that only internalized cells were analyzed. 10,000 cells were measured in each sample.

A549 cells [3] = experiment: as above; assay type: cell-based; details: 100 μg/mL FITC-labeled particles, 60 min
Method: as §1
About 1 million cells/well were seeded in a 12 well plate and incubated for 48 h. […] The cells were trypsinized and centrifuged at 300 g for 5 min, and the pellet was washed and resuspended in 0.4% trypan blue (TB) solution in PBS to quench the extracellular FITC fluorescence. TB, while quenching the FITC fluorescence of non-internalized particles, causes them to fluoresce red whereas an internalized particle will fluoresce green. […] The samples were then analyzed by flow cytometry (BDFACS caliber). 10,000 cells were measured in each sample.
Mean fluorescence intensity obtained from this experiment was compared to that obtained when the A549 cells were treated with 100 μg/mL FITC-labeled bavacizumab nanoparticles alone. […]

[4] = Scanning electron microscopy (SEM) particle size estimate; assay type: physicochemical
From the text: The morphology of the manufactured nanoparticles and the unprocessed IgG was observed by scanning electron microscopy using the Zeiss Supra 50VP system (Zeiss, Germany). Powders were mounted onto aluminum stubs using double sided adhesive tape and were made electrically conductive by coating in a thin layer of gold. The coated samples were then examined under microscope operated at an acceleration voltage of 5 kV.

A549 cells [5] = experiment: Cytotoxicity MTT assay of bevacizumab particles; assay type: cell-based; details: 72 h
Method: Cells (1×10^4 cells/well) were seeded in 96 well plates and incubated at 37° C. in a humidified air atmosphere with 5% carbon dioxide for 48 h. […] At the end of incubation (after 72 h), MTT reagent was added to each well and incubated for 3 h.
The medium was aspirated, and 100 μL of DMSO was added. The plate was read at 560 nm. Cells treated with DMSO and relevant surfactants were used as a control.
The control contained the appropriate concentrations of the relevant surfactant. (FIGS. 16-18).

[6] = in water; cited from earlier work
A549 cells [7] = experiment: Cytotoxicity MTT assay of siRNA/nanoparticle formulations and erlotinib; assay type: cell-based
Method: MTT assay was used to determine the effect of siG12S loaded nanoparticles on the proliferation of A549 cells. Chemosensitivity of siG12S-treated cells to erlotinib was also assessed. Cells (1×10^4 per well) were seeded in 96 well plates and incubated at 37° C. in a humidified atmosphere with 5% carbon dioxide for 24 h. The cells were then treated with different formulations of nanoparticles, siG12S and erlotinib. Cells were incubated for 72 h. 10 μL of 12 Mm MTT reagent were then added to each well. This was then incubated at 37° C. for 4 h. The medium was aspirated and 50 μL of sterile DMSO was added to each well and mixed thoroughly with pipet. The cells were then incubated at 37° C. for 10 min. The plate was read at 540 and 650 nm.

KRAS = experiment: In vitro gene silencing, western blot analysis; assay type: cell-based; details: A549 cells, 50 nM siRNA, 96 h
Method: A549 cells were transfected 24 h after seeding in a 6-well plate at density of 2×10^5/well. Naked siG12S and control siRNA (Thermal Scientific, Amarillo, Tex.) were transfected with lipofectamine RNAimax transfection reagent (Invitrogen). siRNA-loaded IP and IgG nanoparticles were incubated with the cells at 37° C. in a humidified air environment with 5% carbon dioxide for 96 h. The total concentration of siRNA used in all experiments was 50 nM.
Cells were washed twice with ice-cold PBS and then lysed in M-Per mammalian lysis buffer (Thermo Scientific). The protein concentration of the lysates was determined with the Bradford reagent (Bio Rad), and equal amounts of protein were subjected to SDS-PAGE using a 10% gel. Separated proteins were transferred to a nitrocellulose membrane, which was then exposed to 5% nonfat dried milk in TBS containing 0.1% Tween 20 (0.1% TBST) for 1 h at room temperature and incubated overnight at 4° C. with antibodies against KRAS (Abcam, Cambridge, Mass.) or actin (Sigma). The membranes were then washed with 0.1% TBST before being incubated with horseradish peroxidase-conjugated goat antibodies to rabbit (Santa Cruz Biotechnology). Immune complexes were detected with chemiluminescence reagents (Perkin-Elmer Life Science).

serum nuclease = experiment: siRNA stability in serum (50% FBS, gel electrophoresis); assay type: in vitro ADME; details: 37° C., up to 48 h
Method: IgG-poloxamer-188 nanoparticles (IP-nanoparticles) loaded with siG12S, IgG nanoparticles loaded with siG12S and naked siG12S were incubated in F12K medium containing 50% FBS at 37° C. Aliquots of 5 μl samples were taken at time points up to 48 h. Samples were immediately mixed with 2% SDS, and 5 μl TBE urea sample buffer. The mixture was then heated at 70° C. for 3 minutes in order to deactivate the nuclease enzyme in the serum. The integrity of the siRNA was then analyzed using 15% TBE-ureal gel. siRNA bands were visualized by ethidium bromide staining.
Serum stability was assessed by incubating the naked siRNA and siRNA-loaded nanoparticles in 50% serum and the integrity of the siRNA assessed using gel electrophoresis at different time points. FIG. 41 illustrates the finding that naked siRNA was intact immediately after incubation but degraded after 1 h. In contrast, siRNA in IP nanoparticles was intact after 48 h. siRNA in IgG-nanoparticles was also intact up to 24 h. However, IgG-nanoparticles were not able to protect the siRNA after 24 h.

TNF-α = experiment: Immunogenicity and inflammatory reaction in murine macrophages (ELISA); assay type: cell-based; details: RAW 264.7, 24 h
Method: (§2) RAW 264.7 murine macrophage cells were seeded in a 96 well plate at a density of 1.5×10^5/well at 37° C. in humidified air with 5% carbon dioxide for 24 h. The cells were then treated with 100 μg/mL of LPS, naked siG12S, siG12S-loaded IP-nanoparticles, siG12S-loaded IgG-nanoparticles and culture medium seperately for 24 h. TNF-α and IL-6 concentrations in supernatant from cultured cells were analyzed using the respective ELISA kit according to the manufacturer's instructions.

IL-6 = experiment: as above; assay type: cell-based; details: RAW 264.7, 24 h
Method: as §2

bevacizumab [Unprocessed bevacizumab]
Zeta potential (mV) [1]: −4.6 ± 0.3 mV | % alpha helix [2]: 7.52% | % β-sheet [2]: 32.19% | internalization by MRC-5 cells (MRC-5 cells): not internalized | internalization by A549 cells (A549 cells [3]): not internalized | particle size estimated from SEM [4]: approximately 20 μm | IC50 (A549 cells [5]): ~1800 nM

Polyoxyethylene (20) sorbitan monolaurate [Tween 20]
critical micelle concentration (CMC) [6]: 0.0075%

C#Cc1cccc(Nc2ncnc3cc(OCCOC)c(OCCOC)cc23)c1 [erlotinib]
sensitivity of A549 cells to erlotinib (A549 cells [7]; alone or with siG12S (50 nM)-loaded IP nanoparticles): resistant

polyethylene glycol monooleyl ether [Brij 97]
critical micelle concentration (CMC) [6]: 0.029%

naked siG12S: siRNA against mutated KRAS G12S; sense GUUGGAGCUAGUGGCGUAGdTdT (SEQ ID NO:1), antisense SEQ ID NO:2 (sense GUUGGAGCUAGUGGCGUAGNN; antisense CUACGCCACUAGCUCCAACNN; dTdT overhangs, chemistry not fully specified)
KRAS expression (knockdown) (KRAS): major reduction in KRAS expression | time siRNA remained intact in serum (serum nuclease): < 1 h | growth of A549 cells (A549 cells [7]; 50 nM siRNA, 72 h): did not inhibit the growth | production of TNF-α (TNF-α): upgraded the production | production of IL-6 (IL-6): upgraded the production

Polyoxyethylene (80) sorbitan monooleate [Tween 80]
critical micelle concentration (CMC) [6]: 0.0017%
